The source of these data is patent publication US20110251230A1, “THERAPEUTICS FOR NEUROLOGICAL DISORDERS” (UNIVERSITY OF SHEFFIELD, priority 2008, published 2011).

The subject of data set [1] is NRF2-ARE pathway in C6 cells. Briefly: ARE reporter assay in C6 astrocyte cell line. The data set is classed as cell-based, rat. An excerpt: NRF2-ARE Inducing activity of the best hit compounds in neuronal and astrocytic cell lines was investigated. In order to determine whether the differences in protection in astrocytic and motor neuronal cell lines was due to differences in the degree of activation of the NRF2-ARE pathway in these cell types, the NRF2-ARE reporter construct was stably expressed in both the astrocytic (C6) and motor neuronal (NSC34) cell lines. The 17 best hit molecules were then screened in each cell line. We also screened the S [+] enantiomer of apomorphine as it can exist as either an R[−] or S[+] enantiomer. The […] enantiomer has dopamine agonist activity whereas the S[+] enantiomer has lost this activity and so we wanted to determine whether it retains NRF2-ARE inducing activity. In general activation of the NRF2-ARE pathway in the C6 cells was similar to that seen in the CHO cell line. […].
In general terms: Reporter assays use an easily measured gene product as a stand-in for the process of interest.

The subject of data set [2] is Haem oxygenase 1 and NQO1 gene expression in C6 cells. Briefly: Multiplex/quantitative RT-PCR for NRF2 regulated genes in C6 cells. The data set is classed as cell-based, rat. The protocol: (§1) Quantitative RT-PCR. (Q-PCR) was performed using 25 ng of cDNA, 1× SYBR Green PCR Master Mix (Stratagene) and optimised concentrations of forward and reverse primers (Table 1), in a total volume of 20 μl and in triplicate for each sample. Following denaturation at 95° C. for 10 min, products were amplified by 40 cycles of 95° C. for 15 s and 60° C. for 1 min, on an MX3000P Real Time PCR System (Stratagene). To ensure amplification of a single product the dissociation curve was produced for each amplification. The relative levels of the genes of interest in the samples was determined by normalizing the level of expression to that of gapdh in each of the samples and by using the ddCt calculation (SYBR Green PCR mix and RT-PCR protocol, Applied Biosystems). Overall relative concentrations of the genes of interest were calculated following drug treatment by normalising the data to the cells grown in the vehicle (DMSO).

Data set [3] concerns motor neurones (MN) in primary mouse astrocyte/MN co-cultures. Briefly: Menadione stress in primary mouse astrocyte/motor neurone co-cultures. The data set is classed as cell-based. How it is done: Mouse glial cultures were established from C57BI/6 cortices from 1-2 day old pups. Cortices were dissected out and cells dissociated by trituration following incubation in DNasel, collagenase and trypsin. The incubation and trituration steps were repeated to ensure complete dissociation of cells. Cells were plated at 45,000 cells/cm^2 in DMEM containing 10% FBS, 100 U/ml penicillin, and 100 μg/ml streptomycin. After 24 hours, cultures were washed in PBS and grown for 2-3 weeks until confluent, changing the medium once a week. Confluent glial cultures were enriched for astrocytes by shaking and mild trypsinisation. Enriched astrocytes were grown to confluency and plated onto coverslips coated with poly-D-ornithine (1.5 mg/ml; Sigma, Poole, UK) at 40,000 cells/cm^2, and grown for 1 week. […]
When co-cultures were established for 2 weeks, neuroprotection assays were performed by 24 hrs exposure to drug or vehicle followed by a 6 hour 10 micromolar menadione oxidative stress or glutamate. […] Total MNs were counted by fluorescent microscopy in a 1.5 cm^2 area per coverslip. […] Both vehicle and drug treatments were counted before and after stress treatment, and results were statistically analysed by 2 way anova using Bonferroni post tests.
The co-cultures were then challenged for 6 hours with 10 μM menadione to induce oxidative stress and motor neurones stained and counted. […]

The test system of data set [4] is NQO1 and HO1 transcripts in primary mouse astrocytes from G93A mutant SOD1 transgenic mice. Briefly: Quantitative RT-PCR of NQO1 and HOX1 in G93A mutant SOD1 primary mouse astrocytes. The data set is classed as cell-based. The protocol:
as §1

Data set [5] relates to HO-1 and NQO-1 transcripts. Briefly: In vivo pharmacodynamics, QRT-PCR for HO-1 and NQO-1 in mice. As to conditions: mouse.
For data set [6] the following is noted: mouse, in vivo, iv.
Data set [7] has as its system NRF2-ARE pathway in the CHO 4× ARE-TK cell line. Briefly: ARE reporter assay in CHO 4×ARE-TK-GFP cell line (GFP induction, EthD1 toxicity). To be noted: for maximal fold induction: read-out: Average fold GFP induction at maximal response. How it is done: Chinese Hamster Ovary (CHO), NSC34 mouse motor neuronal cells, C6 (rat) and 1321N1 (human) astrocytic lines were routinely maintained in DMEM supplemented with 10% FBS and penicillin/streptomycin. […] These plasmids were transfected into CHO, C6 and 1321N1 cell lines using Lipofectamine 2000 (Invitrogen) and following 10-14 days of selection in 0.5 mg/ml G418 they were expanded and selected for basal eGFP expression using fluorescence activated cell sorting (BD, FACSAria) with two sequential cell sorts for each cell line. These mixed populations of stable transfectants with basal eGFP expression were used in subsequent assays and designated 4×ARE-TK-GFP for the ARE containing line and TK-GFP for the control cell line. […]
Confluent cultures of 4×ARE-TK-GFP CHO or TK-GFP CHO expressing cells in 96 or 384-well tissue-culture plates were treated with drug (0.01-100 µM in triplicate) or vehicle (0.1-1% DMSO) in FCS-free DMEM in triplicate for 24 hours. The media was removed and replaced with the same volume of PBS containing 0.3 μM EthD1. […] Non-linear regression was used to fit a sigmoidal dose-response curve on a semi-Log plot to calculate the EC50 using GraphPad Prism (GraphPad Software). The reporter assay was conducted in a similar fashion in C6 and 1321N1 astrocyte cell lines stably transfected with the 4×ARE-TK-GFP and TK-GFP constructs except that Eth D1 was added directly in the media and read prior to washing the cells once and reading the […] signal. […]
The compounds were applied in triplicate to confluent cells in 96 well plates in serum free medium for 24 hours and the induction of GFP measured in a fluorescence plate reader. […]

The subject of data set [8] is NSC34 mouse motor neuronal cells.
Experimental: (§2) A simple oxidative stress assay was used to determine whether preconditioning with NRF2-ARE inducing drugs could protect against a subsequent oxidative stress insult (serum withdrawal). The NSC34, C6 and 1321N1 cells were plated in 96 well tissue culture plates to achieve 30% confluency. […] Media was then replaced with serum free, phenol free media for 5 hrs. […] Cell survival assay was then performed on the cells as protection is measured as % reduction in DCF signal, therefore data points were excluded where a decrease in cell number was measured.
(§3) Briefly methylthiazolyldiphenyl-tetrazolium bromide (MTT) was added to the cells and a blank well to a final concentration 0.5 mg/ml and incubated at 37° C. for 1-3 hrs depending on the cell line used.
Data set [9] relates to 1321N1 (human) astrocytic line.
Experimental: as §2, §3
The subject of data set [10] is C6 (rat) astrocytic line.
Experimental: as §2, §3
In data set [11] the test system is 1321N1 (human) astrocytic line. Briefly: 1321N1 oxidative stress assay (serum withdrawal, DCF). As to conditions: for IC50: 1321N1, 24 h pre-treatment, serum withdrawal, DCF; for Lowest dose with toxicity: 1321N1; for Maximal % reduction in Oxidative stress: 1321N1, DCF fluorescence.
Experimental: as §2, §3
The subject of data set [12] is C6 (rat) astrocytic line. Briefly: C6 oxidative stress assay (serum withdrawal, DCF). As to conditions: for Lowest dose with toxicity: C6; for IC50: C6, 24 h pre-treatment, serum withdrawal, DCF; for Maximal % reduction in Oxidative stress: C6, DCF fluorescence.
Experimental: as §2, §3
The subject of data set [13] is NSC34 mouse motor neuronal cells. Briefly: NSC34 oxidative stress assay (serum withdrawal, DCF). As to conditions: for Lowest dose with toxicity: NSC34; for Maximal % reduction in Oxidative stress: NSC34, DCF fluorescence, negative = pro-oxidant.
Experimental: as §2, §3
The subject of data set [14] is motor neuronal cell line expressing mutant (G93A) human SOD1. As to conditions: prior art; cited from earlier work.
The test system of the next data set is G93A mouse model of ALS. As to conditions: higher doses, once a day, orally from 60 days of age; prior art; cited from earlier work.
[15] abbreviates: read-out: Average EC50, CHO 4×ARE-TK-GFP, GFP induction, 24 h.

Where two headings read alike, the source gives them in different places.

Turning to `CN1CCc2cccc3c2[C@H]1Cc1ccc(O)c(O)c1-3.Cl` (single isomer, unassigned) [S[+] apomorphine, S [+] apomorphine], the “NRF2-ARE activation in C6 reporter cell line” value in data set [1] is listed as “equally potent”. Moreover, the “Haem oxygenase 1 and NQO1 gene expression” value in [2] was “statistically significant changes in gene expression”. For the same compound, the “reduction in motor neurone number after menadione” value in data set [3] is recorded as “not seen”. Also, in data set [4], the “transcripts for NQO1 and HO1” value is reported as “significant increase”. In addition, in data set [5], the “induction of HO-1 and NQO-1 transcripts” value is on record as “significant induction”. Besides, in [6], the “levels of the compound in plasma, brain and cerebral spinal fluid” value is “detected”.
Consider `CC(=O)OC1CC[C@@]2(C)C(CC[C@H]3[C@@H]4CC=C(C(C)=O)[C@@]4(C)C(=O)C[C@@H]32)C1` (stereo partly shown) [3 acetoxypregn-16-en-12,20-dione], for which the “Lowest dose with toxicity” value in data set [7] (Chinese hamster, 24 h) was 30 µM; in data set [8] it was “none”; in data set [9], “none”; with C6 (rat) astrocytic line [10], “none”. Further, the maximal fold induction in data set [7] (Cricetulus griseus, 24 h) was determined as 3.14. Besides, the 50% inhibitory concentration (IC50) in data set [11] was ~12.4 µM.
Regarding `C=C1CC[C@@H]2[C@](C)(CO)[C@H](O)CC[C@@]2(C)[C@@H]1C/C=C1/C(=O)OC[C@H]1O` [Andrographolide], the “Lowest dose with toxicity” value was determined as 100 µM in data set [7] (Chinese hamster, 24 h); 10 µM in the data set with C6 (rat) astrocytic line [12]; 10 µM in data set [13]; 10 µM in [11]. For the same compound, the 50% effective concentration (EC50) came to 0.74 µM in data set [7] (Cricetulus griseus, 24 h, read-out: Average EC50, CHO 4×ARE-TK-GFP, GFP induction, 24 h) and 0.74 µM in data set [7] (Cricetulus griseus, CHO ARE reporter). In addition, in data set [7] (Cricetulus griseus, 24 h), the maximal fold induction amounted to 3.61. The “Haem oxygenase 1 and NQO1 gene expression” value in data set [2] (C6 cells, 24 h, EC50 and EC90 concentrations) is “statistically significant changes in gene expression”. Further, the “reduction in motor neurone number after menadione” value in data set [3] (24 h pre-treatment, 6 hours 10 μM menadione, DMSO control approximately 25% reduction) is “not seen”. Also, the “transcripts for NQO1 and HO1” value in [4] (G93A mutant SOD1 astrocytes, 24 hour pre-treatment, EC90 concentrations) is given as “significant increase”. The IC50 in the data set on C6 (rat) astrocytic line [12] is 0.192 µM; in data set [11], 0.501 µM.
Turning to `O=C(O[C@@H]1Cc2c(O)cc(O)cc2O[C@@H]1c1cc(O)c(O)c(O)c1)c1cc(O)c(O)c(O)c1` [EGCG, catechin-(−) epigallocatechin-3-gallate, reference compound], in data set [7] (control TK-GFP CHO cell line), the “fluorescence in the control TK-GFP cell line” value is given as “No increase in fluorescence”. The “concentration of peak ARE activation (GFP expression)” value in [7] (narrow window, 24 h, serum free medium) came to 100 µM. Further, in data set [14], the “concentration giving partial protection from H2O2 induced cell death” value was “greater than 20 μM”. For the same compound, the survival result in the data set on G93A mouse model of ALS is given as “significant extension in survival”.
Regarding `CC(C)N(C(=O)CCl)c1ccccc1` [Propachlor], the “Lowest dose with toxicity” value in data set [7] (Chinese hamster, 24 h) was 100 µM; in [8] (mouse, 24 h), 10 µM; in [9] (human, 24 h), 10 µM; in the data set on C6 (rat) astrocytic line [10] (rat, 24 h), 10 µM. Besides, the half-maximal effective concentration (EC50) in data set [7] (Cricetulus griseus, 24 h, read-out: Average EC50) was determined as 1.49 µM. In data set [7] (Cricetulus griseus, 24 h), the maximal fold induction came to 3.25. In addition, the half-inhibitory concentration (IC50) in the data set on C6 (rat) astrocytic line [12] amounted to 0.645 µM; in data set [11], 0.829 µM.
For the compound `C[C@@H]1C(=O)O[C@H]2[C@H]1CC[C@@]1(C)C=CC(=O)[C@@]3(C)O[C@@]213` [epoxy(4,5α)-4,5-dihydrosantonin], the “Average fold GFP induction at maximal response” value (from here on “Average fold GFP induction”) in data set [7] (CHO 4×ARE-TK-GFP, 24 h) was found to be 2.91 fold. Besides, the “Lowest dose with toxicity” value in [7] (CHO ARE reporter assay) was 100 µM; in data set [8] it was 3 µM; in [9], “none”; in the data set with C6 (rat) astrocytic line [10], “none”. Also, the 50% effective concentration (EC50) in data set [7] (setting [15]) turned out to be 18.2 µM. The values for the half-maximal inhibitory concentration (IC50) (in the data set with C6 (rat) astrocytic line [12]; in data set [11]) were 2.13 µM and 0.662 µM, respectively. For the same compound, the “Maximal % reduction in Oxidative stress” value in the data set with C6 (rat) astrocytic line [12] is 62%; in data set [13], 0%; in [11], 63%.
Take Euphol acetate: the “Average fold GFP induction” value in data set [7] (CHO 4×ARE-TK-GFP, 24 h) came out at 2.20 fold. For the same compound, the “Lowest dose with toxicity” value in data set [7] (CHO ARE reporter assay) was 100 µM; with C6 (rat) astrocytic line [12], “none”; in [13], “none”; in [11], “none”. Also, the half-maximal effective concentration (EC50) in data set [7] (setting [15]) is ~99 µM. In addition, the entries for the “Maximal % reduction in Oxidative stress” value (in the data set with C6 (rat) astrocytic line [12]; in data set [13]; in data set [11]) were 0%, −43% and 38%, respectively. In data set [11], the half-inhibitory concentration (IC50) was found to be 18 µM.
In the case of “methyl-7-deshydroxypyrogallin-4-carboxylate”, the “Average fold GFP induction” value in data set [7] (CHO 4×ARE-TK-GFP, 24 h) is 2.83 fold. In addition, the “Lowest dose with toxicity” value in data set [7] (CHO ARE reporter assay) was 100 µM; in the data set with C6 (rat) astrocytic line [12] it was “none”; in data set [13] it was 0.3 µM; in [11], “none”. Further, the EC50 in [7] (setting [15]) came to 2050 µM. Besides, the IC50 in the data set on C6 (rat) astrocytic line [12] is 2.95 µM. The “Maximal % reduction in Oxidative stress” value was 70% with C6 (rat) astrocytic line [12], −23% in [13] and 45% in data set [11].

The IC50 is the concentration needed to halve the response being measured. What is called EC50 is the concentration that produces a half-maximal response.
